{"source": "patent US12215082B1", "about": "(priority 2023, dated 2025)", "tested_on": "Mycobacterium tuberculosis H37Rv (susceptible)", "assay": "Resazurin Microplate Assay (REMA), anti-tubercular activity, H37Rv strain", "type": "cell-based", "settings": "192 h, read-out: MIC Susceptible (H37Rv)", "data": [{"compound": "O=C(C[n+]1ccc(/C=N/O)cc1)c1ccc(F)cc1.[Br-]", "note": "[Compound 3c, (E)-1-(2-(4-Fluorophenyl)-2-oxoethyl)-4-((hydroxyimino)methyl)pyridin-1-ium bromide]", "values": [{"measurement": "MIC", "value": 32, "unit": "µg/mL"}]}, {"compound": "N#Cc1ccc(C(=O)C[n+]2ccc(/C=N/O)cc2)cc1.[Br-]", "note": "[Compound 3d, (E)-1-(2-(4-Cyanophenyl)-2-oxoethyl)-4-((hydroxyimino)methyl)pyridin-1-ium bromide]", "values": [{"measurement": "MIC", "value": 16, "unit": "µg/mL"}]}, {"compound": "O=C(C[n+]1ccc(/C=N/O)cc1)c1ccc(Br)cc1.[Br-]", "note": "[Compound 3b, (E)-1-(2-(4-Bromophenyl)-2-oxoethyl)-4-((hydroxyimino)methyl)pyridin-1-ium bromide]", "values": [{"measurement": "MIC", "value": 32, "unit": "µg/mL"}]}, {"compound": "O=C(C[n+]1ccc(/C=N/O)cc1)c1ccccc1[N+](=O)[O-].[Br-]", "note": "[Compound 3e, (E)-4-((Hydroxyimino)methyl)-1-(2-(2-nitrophenyl)-2-oxoethyl)pyridin-1-ium bromide]", "values": [{"measurement": "MIC", "value": 64, "unit": "µg/mL"}]}, {"compound": "O=C(C[n+]1ccc(/C=N/O)cc1)c1ccccc1.[Br-]", "note": "[Compound 3a, (E)-4-((Hydroxyimino)methyl)-1-(2-oxo-2-phenylethyl)pyridin-1-ium bromide]", "values": [{"measurement": "MIC", "value": 32, "unit": "µg/mL"}]}]}
